Each structure is given as a SMILES string. Where a name gives a salt, the structure may show the parent alone. Read-outs that look alike come from different tables or passages of the source.

This passage reports inhibition, IC50 and EC50 results from patent publication US9663512B2, “Bicyclic heterocycle compounds and their uses in therapy” (ASTEX THERAPEUTICS LIMITED, priority 2012, dated 2017).

In test [1] the target is T1, BIR3 domain of human XIAP (Homo sapiens, UniProt P98170).
T1 construct: BIR3 domain of human XIAP (residues 252-350) fused to a His-tag; His-tag (cleaved yes); made in house; host or cells: Escherichia coli
T1 sequence (P98170 252-350): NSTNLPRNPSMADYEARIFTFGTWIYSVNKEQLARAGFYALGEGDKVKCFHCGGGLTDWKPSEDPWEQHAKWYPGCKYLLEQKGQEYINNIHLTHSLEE
Put plainly: XIAP in vitro competitive displacement binding assay (fluorescence polarization). Conditions: for inhibition at 0.04 µM / inhibition at […]: read-out: Xiap IC50 or PI (percent inhibition); for IC50: XIAP BIR3 fluorescence polarization displacement, average (e.g. geometric mean), read-out: Xiap IC50 or PI (IC50); for inhibition at […]: at 0.12 μM.

Test [2] addresses T2, BIR3 domain of human cIAP-1 (Homo sapiens, UniProt Q13490).
T2 construct: human cIAP-1 (residues 267-363) fused to a GST-tag; GST-tag (cleaved yes); made in house; host or cells: Escherichia coli
The experiment in a line: cIAP-1 in vitro competitive displacement binding assay (fluorescence polarization). Conditions: at 0.012 μM; read-out: cIAP1 IC50 or PI (percent inhibition).

Test [3] relates to EVSA-T (human breast carcinoma). The experiment in a line: Anti-proliferative activity, Alamar Blue assay, EVSA-T. It is filed as cell-based. Conditions: EVSA-T cell line, read-out: EVSA-T prolif (EC50).

T2 sequence (Q13490 267-363): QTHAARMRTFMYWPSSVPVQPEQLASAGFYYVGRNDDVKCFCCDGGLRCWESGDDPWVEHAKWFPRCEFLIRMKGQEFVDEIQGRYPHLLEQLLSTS

The term inhibition denotes the relative decrease from the control value, in per cent. `Cc1ncn(C[C@H]2CN[C@H](C)CN2CC(=O)N2CC(C)(C)c3ncc(Cc4ccc(F)cc4)cc32)c1C` [Example 3, 2-[(2R,5R)-2-[(4,5-Dimethyl-1H-imidazol-1-yl)methyl]-5-methylpiperazin-1-yl]-1-{6-[(4-fluorophenyl)methyl]-3,3-dimethyl-1H,2H,3H-pyrrolo[3,2-b]pyridin-1-yl}ethan-1-one, dihydrochloride]: the inhibition at 0.04 µM in test [1] was determined as 34%. Further, the inhibition at […] in test [2] amounted to 99%.

One may read the IC50 as the point on the concentration scale where inhibition reaches its midpoint. As for `Cc1cc(C)n(C[C@H]2CN[C@H](C)CN2CC(=O)N2CC(C)(C)c3ncc(Cc4ccc(F)cc4)cc32)n1` [Example 1, 2-[(2R,5R)-2-[(3,5-Dimethyl-1H-pyrazol-1-yl)methyl]-5-methylpiperazin-1-yl]-1-{6-[(4-fluorophenyl)methyl]-3,3-dimethyl-1H,2H,3H-pyrrolo[3,2-b]pyridin-1-yl}ethan-1-one, dihydrochloride], in test [1], the IC50 is 91 nM.

`Cc1nccn1C[C@H]1CN[C@H](C)CN1CC(=O)N1CC(C)(C)c2ncc(Cc3ccc(F)cc3)cc21` [Example 2, 1-{6-[(4-Fluorophenyl)methyl]-3,3-dimethyl-1H,2H,3H-pyrrolo[3,2-b]pyridin-1-yl}-2-[(2R,5R)-5-methyl-2-[(2-methyl-1H-imidazol-1-yl)methyl]piperazin-1-yl]ethan-1-one, dihydrochloride]: the values for the inhibition at […] in test [1] and in test [2] were 65% and 100%, respectively.

As to `C[C@@H]1CN(CC(=O)N2CC(C)(C)c3ncc(Cc4ccc(F)cc4)cc32)[C@@H](Cn2ccnc2C(F)(F)F)CN1` [Example 5, 1-{6-[(4-Fluorophenyl)methyl]-3,3-dimethyl-1H,2H,3H-pyrrolo[3,2-b]pyridin-1-yl}-2-[(2R,5R)-5-methyl-2-{[2-(trifluoromethyl)-1H-imidazol-1-yl]methyl}piperazin-1-yl]ethan-1-one, dihydrochloride], in test [1], the IC50 is 110 nM. Besides, the inhibition at […] in test [2] came to 96%.

A word on the EC50: it is the concentration needed to bring the measured effect to its halfway point. Take `Cc1cn(C[C@H]2CN[C@H](C)CN2CC(=O)N2CC(C)(C)c3ncc(Cc4ccc(F)cc4)cc32)cn1` (single isomer, unassigned) [Example 13, dihydrochloride]: the EC50 in test [3] (72 hours) turned out to be 9.9 nM.

With `CCc1nccn1C[C@H]1CN[C@H](C)CN1CC(=O)N1CC(C)(C)c2ncc(Cc3ccc(F)cc3)cc21` [Example 4, 2-[(2R,5R)-2-[(2-Ethyl-1H-imidazol-1-yl)methyl]-5-methylpiperazin-1-yl]-1-{6-[(4-fluorophenyl)methyl]-3,3-dimethyl-1H,2H,3H-pyrrolo[3,2-b]pyridin-1-yl}ethan-1-one, dihydrochloride], the inhibition at 0.04 µM in test [1] was 35%. The inhibition at […] in test [2] stood at 96%.

`C[C@@H]1CN(CC(=O)N2CC(C)(C)c3ncc(Cc4ccc(F)cc4)cc32)[C@@H](Cn2ccnc2)CN1` [Example 6, 1-{6-[(4-Fluorophenyl)methyl]-3,3-dimethyl-1H,2H,3H-pyrrolo[3,2-b]pyridin-1-yl}-2-[(2R,5R)-2-(1H-imidazol-1-ylmethyl)-5-methylpiperazin-1-yl]ethan-1-one, dihydrochloride]: the inhibition at […] in test [1] was determined as 54%.

Take `C[C@@H]1CN(CC(=O)N2CC(C)(C)c3ncc(Cc4ccc(F)cc4)cc32)[C@@H](Cn2ccnc2Cl)CN1` [Example 8, 2-[(2R,5R)-2-[(2-Chloro-1H-imidazol-1-yl)methyl]-5-methylpiperazin-1-yl]-1-{6-[(4-fluorophenyl)methyl]-3,3-dimethyl-1H,2H,3H-pyrrolo[3,2-b]pyridin-1-yl}ethan-1-one, dihydrochloride]: the inhibition at 0.04 µM in test [1] turned out to be 36%. Moreover, the inhibition at […] in test [2] came out at 100%.

In the case of `Cc1cnn(C[C@H]2CN[C@H](C)CN2CC(=O)N2CC(C)(C)c3ncc(Cc4ccc(F)cc4)cc32)c1C` (single isomer, unassigned) [Example 20, dihydrochloride], the EC50 is less than 1000 nM in test [3] (72 hours) and 2.1 nM in test [3] (EVSA-T, 72 h).

In the case of `Cc1ccc(=O)n(C[C@H]2CN[C@H](C)CN2CC(=O)N2CC(C)(C)c3ncc(Cc4ccc(F)cc4)cc32)c1` [Example 9, 1-{[(2R,5R)-1-(2-{6-[(4-Fluorophenyl)methyl]-3,3-dimethyl-1H,2H,3H-pyrrolo[3,2-b]pyridin-1-yl}-2-oxoethyl)-5-methylpiperazin-2-yl]methyl}-5-methyl-1,2-dihydropyridin-2-one, dihydrochloride], the inhibition at 0.04 µM in test [1] stood at 35%. Also, the inhibition at […] in test [2] was 92%.

On to `Cc1nc(Cl)cn1C[C@H]1CN[C@H](C)CN1CC(=O)N1CC(C)(C)c2ncc(Cc3ccc(F)cc3)cc21` [Example 11, 2-[(2R,5R)-2-[(4-Chloro-2-methyl-1H-imidazol-1-yl)methyl]-5-methylpiperazin-1-yl]-1-{6-[(4-fluorophenyl)methyl]-3,3-dimethyl-1H,2H,3H-pyrrolo[3,2-b]pyridin-1-yl}ethan-1-one, dihydrochloride], for which the EC50 in test [3] (EVSA-T, 72 h) is 1.8 nM.

As to `Cc1cn(C[C@H]2CN[C@H](C)CN2CC(=O)N2CC(C)(C)c3ncc(Cc4ccc(F)cc4)cc32)c(C)n1` [Example 7, 2-[(2R,5R)-2-[(2,4-Dimethyl-1H-imidazol-1-yl)methyl]-5-methylpiperazin-1-yl]-1-{6-[(4-fluorophenyl)methyl]-3,3-dimethyl-1H,2H,3H-pyrrolo[3,2-b]pyridin-1-yl}ethan-1-one, dihydrochloride], the EC50 in test [3] (72 hours) turned out to be 2.9 nM.

With `Cc1cncn1C[C@H]1CN[C@H](C)CN1CC(=O)N1CC(C)(C)c2ncc(Cc3ccc(F)cc3)cc21` (single isomer, unassigned) [Example 14, dihydrochloride], the EC50 in test [3] (72 hours) worked out at 5.9 nM.

With `Cc1cc(C[C@H]2CN[C@H](C)CN2CC(=O)N2CC(C)(C)c3ncc(Cc4ccc(F)cc4F)cc32)n(C)n1` [Example 22, 1-{6-[(2,4-Difluorophenyl)methyl]-3,3-dimethyl-1H,2H,3H-pyrrolo[3,2-b]pyridin-1-yl}-2-[(2S,5R)-2-[(1,3-dimethyl-1H-pyrazol-5-yl)methyl]-5-methylpiperazin-1-yl]ethan-1-one, dihydrochloride], in test [1], the inhibition at 0.04 µM was found to be 47%.

For the compound `Cc1cn(C[C@H]2CN[C@H](C)CN2CC(=O)N2CC(C)(C)c3ncc(Cc4ccc(F)cc4)cc32)ccc1=O` [Example 38, 1-{[(2R,5R)-1-(2-{6-[(4-Fluorophenyl)methyl]-3,3-dimethyl-1H,2H,3H-pyrrolo[3,2-b]pyridin-1-yl}-2-oxoethyl)-5-methylpiperazin-2-yl]methyl}-3-methyl-1,4-dihydropyridin-4-one, dihydrochloride], in test [1], the inhibition at 0.04 µM was 48%. Further, the inhibition at […] in test [2] amounted to 94%.

On to `Cc1cnnn1C[C@H]1CN[C@H](C)CN1CC(=O)N1CC(C)(C)c2ncc(Cc3ccc(F)cc3)cc21` [Example 15, 1-{6-[(4-Fluorophenyl)methyl]-3,3-dimethyl-1H,2H,3H-pyrrolo[3,2-b]pyridin-1-yl}-2-[(2R,5R)-5-methyl-2-[(5-methyl-1H-1,2,3-triazol-1-yl)methyl]piperazin-1-yl]ethan-1-one, dihydrochloride], for which the IC50 in test [1] was determined as 220 nM. Further, in test [3] (72 hours), the EC50 is 9.4 nM.

With `Cc1cn(C[C@H]2CN[C@H](C)CN2CC(=O)N2CC(C)(C)c3ncc(Cc4ccc(F)cc4)cc32)nn1` [Example 16, 1-{6-[(4-Fluorophenyl)methyl]-3,3-dimethyl-1H,2H,3H-pyrrolo[3,2-b]pyridin-1-yl}-2-[(2R,5R)-5-methyl-2-[(4-methyl-1H-1,2,3-triazol-1-yl)methyl]piperazin-1-yl]ethan-1-one, dihydrochloride], the EC50 in test [3] (72 hours) is 8.5 nM.

As for `C[C@@H]1CN(CC(=O)N2CC(C)(C)c3ncc(Cc4ccc(F)cc4)cc32)[C@@H](Cn2ccnc2C#N)CN1` [Example 10, 1-{[(2R,5R)-1-(2-{6-[(4-Fluorophenyl)methyl]-3,3-dimethyl-1H,2H,3H-pyrrolo[3,2-b]pyridin-1-yl}-2-oxoethyl)-5-methylpiperazin-2-yl]methyl}-1H-imidazole-2-carbonitrile, L-lactate], the EC50 in test [3] (EVSA-T, 72 h) amounted to 6.4 nM.

For `Cc1ncnn1C[C@H]1CN[C@H](C)CN1CC(=O)N1CC(C)(C)c2ncc(Cc3ccc(F)cc3)cc21` [Example 21, 1-{6-[(4-Fluorophenyl)methyl]-3,3-dimethyl-1H,2H,3H-pyrrolo[3,2-b]pyridin-1-yl}-2-[(2R,5R)-5-methyl-2-[(5-methyl-1H-1,2,4-triazol-1-yl)methyl]piperazin-1-yl]ethan-1-one], the inhibition at […] in test [1] was 61%; in test [2] it was 95%.
